Values after ≈ are worked out from the molar mass of the structure shown.
Assays:
[1] = Octanol-water partition co-efficient, log D of the compound by shake flask method; format: physicochemical
[2] = Solubility of the compound at pH 6.5; format: physicochemical; conditions: buffer
[3] = molecular target: T1, Organic anion transporter 3 (Homo sapiens, UniProt Q8TCC7); experiment: Inhibition of OAT3 (unknown origin)
T1 sequence (Q8TCC7 whole entry): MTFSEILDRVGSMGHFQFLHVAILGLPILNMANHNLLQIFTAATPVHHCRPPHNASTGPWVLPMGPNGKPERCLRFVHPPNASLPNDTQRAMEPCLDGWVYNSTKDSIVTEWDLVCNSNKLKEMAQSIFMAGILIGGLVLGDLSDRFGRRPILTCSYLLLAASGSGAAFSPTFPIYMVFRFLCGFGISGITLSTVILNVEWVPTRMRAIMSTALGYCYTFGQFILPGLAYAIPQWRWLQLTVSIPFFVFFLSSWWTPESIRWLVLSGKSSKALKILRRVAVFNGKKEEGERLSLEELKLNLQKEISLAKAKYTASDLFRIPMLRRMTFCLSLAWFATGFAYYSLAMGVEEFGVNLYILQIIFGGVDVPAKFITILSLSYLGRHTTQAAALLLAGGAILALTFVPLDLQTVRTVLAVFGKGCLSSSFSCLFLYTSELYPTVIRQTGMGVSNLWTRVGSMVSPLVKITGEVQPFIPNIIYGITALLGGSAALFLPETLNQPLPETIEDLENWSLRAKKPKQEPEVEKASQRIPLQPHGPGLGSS

[4] = Intrinsic clearance in rat liver microsomes; format: ADME; conditions: read-out: CLH
[5] = Unbound clearance in rat at 1 mg/kg, iv and 3 mg/kg, po; format: ADME, organism-based; conditions: in vivo
[6] = Mutagenicity in […] by Ames test in absence of […]; format: toxicity
[7] = molecular target: T2, Solute carrier family 22 member 12 (Homo sapiens, UniProt Q96S37); experiment: Inhibition of human C-terminal eGFP-tagged URAT1 long isoform expressed in CHO cells assessed as decrease in [14C]-uric acid uptake preincubated for 15 mins followed by [14C]-uric acid addition and incubated in dark for 3 hrs by scintillation counting method; format: cell-based
T2 sequence (Q96S37 whole entry): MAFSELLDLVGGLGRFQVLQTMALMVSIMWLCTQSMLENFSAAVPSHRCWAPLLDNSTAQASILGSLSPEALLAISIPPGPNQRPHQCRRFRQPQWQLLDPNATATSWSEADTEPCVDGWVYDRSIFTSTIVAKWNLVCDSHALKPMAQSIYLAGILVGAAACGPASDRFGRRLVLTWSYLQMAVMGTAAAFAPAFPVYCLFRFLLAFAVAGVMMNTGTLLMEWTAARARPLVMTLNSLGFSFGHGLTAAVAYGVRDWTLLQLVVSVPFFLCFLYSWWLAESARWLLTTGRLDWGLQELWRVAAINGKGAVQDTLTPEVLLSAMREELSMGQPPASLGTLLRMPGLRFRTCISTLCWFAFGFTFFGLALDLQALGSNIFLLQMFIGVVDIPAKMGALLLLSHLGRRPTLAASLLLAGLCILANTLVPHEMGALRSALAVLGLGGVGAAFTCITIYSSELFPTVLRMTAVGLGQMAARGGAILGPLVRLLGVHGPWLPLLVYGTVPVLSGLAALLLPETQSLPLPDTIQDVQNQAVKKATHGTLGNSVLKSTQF

[8] = Half life in rat at 1 mg/kg, iv and 3 mg/kg, po; format: ADME, organism-based; conditions: in vivo
[9] = molecular target: T3, Solute carrier organic anion transporter family member 2B1 (Homo sapiens, UniProt O94956); experiment: Drug uptake assessed as human OATP2B1-mediated drug accumulation by cell-based assay relative to wild type protein; format: ADME
T3 sequence (O94956 whole entry): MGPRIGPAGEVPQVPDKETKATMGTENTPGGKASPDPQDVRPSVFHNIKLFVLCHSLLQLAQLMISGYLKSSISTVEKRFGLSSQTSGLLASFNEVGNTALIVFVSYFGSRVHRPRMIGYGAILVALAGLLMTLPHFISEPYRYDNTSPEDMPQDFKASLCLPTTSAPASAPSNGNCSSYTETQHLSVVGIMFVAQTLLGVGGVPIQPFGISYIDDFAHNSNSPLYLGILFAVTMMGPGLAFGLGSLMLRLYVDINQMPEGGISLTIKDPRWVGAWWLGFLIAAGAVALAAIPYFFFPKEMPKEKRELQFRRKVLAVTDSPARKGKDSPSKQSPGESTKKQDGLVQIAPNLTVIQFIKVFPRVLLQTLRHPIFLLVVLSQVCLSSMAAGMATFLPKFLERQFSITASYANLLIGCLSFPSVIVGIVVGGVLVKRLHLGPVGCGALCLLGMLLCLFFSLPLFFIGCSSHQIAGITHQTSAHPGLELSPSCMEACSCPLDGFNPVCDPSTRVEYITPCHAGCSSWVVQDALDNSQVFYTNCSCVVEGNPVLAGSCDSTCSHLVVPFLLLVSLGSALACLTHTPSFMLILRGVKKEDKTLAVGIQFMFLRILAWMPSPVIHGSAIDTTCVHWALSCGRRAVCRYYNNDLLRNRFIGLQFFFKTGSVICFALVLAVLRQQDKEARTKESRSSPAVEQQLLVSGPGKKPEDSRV

[10] = Permeability in RRCK cells; format: ADME, cell-based, Canis lupus familiaris, MDCKII-LE; conditions: dog, MDCK; read-out: permeability
[11] = Renal clearance in dog at 1 mg/kg, iv and 3 mg/kg, po relative to GFR x fraction unbound; format: ADME, organism-based, Canis lupus familiaris; conditions: in vivo
[12] = Volume of distribution at steady state in rat at 1 mg/kg, iv and 3 mg/kg, po; format: ADME, organism-based; conditions: in vivo, read-out: Vdss
[13] = Toxicity in po dosed dog administered as single dose; format: organism-based, Canis lupus familiaris; conditions: in vivo
[14] = Drug metabolism in human hepatocytes assessed as monooxidation; format: ADME, cell-based, Hepatocyte
[15] = Oral bioavailability in rat at 3 mg/kg; format: ADME, organism-based; conditions: in vivo
[16] = Toxicity in dog assessed as increase in body temperature at 10 mg/kg, po administered as single dose measured up to 3 days post dose; format: organism-based, Canis lupus familiaris; conditions: in vivo, 72 h
[17] = Renal clearance in dog at 0.363 mg/kg, iv and 0.737 mg/kg, po relative to GFR x fraction unbound; format: ADME, organism-based, Canis lupus familiaris; conditions: in vivo
[18] = Average plasma concentration in Wistar Han rat at 10 mg/kg, po administered as single dose measured on day 14; format: ADME, organism-based; conditions: in vivo
[19] = molecular target: Voltage-gated inwardly rectifying potassium channel KCNH2 (Homo sapiens, UniProt Q12809); experiment: Inhibition of human ERG by patch clamp method
[20] = Toxicity in dog assessed as transient panting at 10 mg/kg, po administered as single dose measured up to 30 hrs post dose; format: organism-based, Canis lupus familiaris; conditions: in vivo
[21] = Intrinsic clearance in rat hepatocytes assessed per 10^6 cells; format: ADME, cell-based, Hepatocyte
[22] = Intrinsic clearance in dog hepatocytes assessed per 10^6 cells; format: ADME, cell-based, Canis lupus familiaris, Hepatocyte
[23] = Fraction unbound in human plasma; format: ADME, cell-free
[24] = Fraction unbound in rat plasma; format: ADME, cell-free
[25] = Toxicity in dog assessed as increase in body temperature at 100 mg/kg, po administered as single dose; format: organism-based, Canis lupus familiaris; conditions: in vivo
[26] = Unbound Cmax in dog at 30 mg/kg, po administered as single dose; format: ADME, organism-based, Canis lupus familiaris; conditions: in vivo

Voltage-gated inwardly rectifying potassium channel KCNH2, sequence (Q12809 whole entry): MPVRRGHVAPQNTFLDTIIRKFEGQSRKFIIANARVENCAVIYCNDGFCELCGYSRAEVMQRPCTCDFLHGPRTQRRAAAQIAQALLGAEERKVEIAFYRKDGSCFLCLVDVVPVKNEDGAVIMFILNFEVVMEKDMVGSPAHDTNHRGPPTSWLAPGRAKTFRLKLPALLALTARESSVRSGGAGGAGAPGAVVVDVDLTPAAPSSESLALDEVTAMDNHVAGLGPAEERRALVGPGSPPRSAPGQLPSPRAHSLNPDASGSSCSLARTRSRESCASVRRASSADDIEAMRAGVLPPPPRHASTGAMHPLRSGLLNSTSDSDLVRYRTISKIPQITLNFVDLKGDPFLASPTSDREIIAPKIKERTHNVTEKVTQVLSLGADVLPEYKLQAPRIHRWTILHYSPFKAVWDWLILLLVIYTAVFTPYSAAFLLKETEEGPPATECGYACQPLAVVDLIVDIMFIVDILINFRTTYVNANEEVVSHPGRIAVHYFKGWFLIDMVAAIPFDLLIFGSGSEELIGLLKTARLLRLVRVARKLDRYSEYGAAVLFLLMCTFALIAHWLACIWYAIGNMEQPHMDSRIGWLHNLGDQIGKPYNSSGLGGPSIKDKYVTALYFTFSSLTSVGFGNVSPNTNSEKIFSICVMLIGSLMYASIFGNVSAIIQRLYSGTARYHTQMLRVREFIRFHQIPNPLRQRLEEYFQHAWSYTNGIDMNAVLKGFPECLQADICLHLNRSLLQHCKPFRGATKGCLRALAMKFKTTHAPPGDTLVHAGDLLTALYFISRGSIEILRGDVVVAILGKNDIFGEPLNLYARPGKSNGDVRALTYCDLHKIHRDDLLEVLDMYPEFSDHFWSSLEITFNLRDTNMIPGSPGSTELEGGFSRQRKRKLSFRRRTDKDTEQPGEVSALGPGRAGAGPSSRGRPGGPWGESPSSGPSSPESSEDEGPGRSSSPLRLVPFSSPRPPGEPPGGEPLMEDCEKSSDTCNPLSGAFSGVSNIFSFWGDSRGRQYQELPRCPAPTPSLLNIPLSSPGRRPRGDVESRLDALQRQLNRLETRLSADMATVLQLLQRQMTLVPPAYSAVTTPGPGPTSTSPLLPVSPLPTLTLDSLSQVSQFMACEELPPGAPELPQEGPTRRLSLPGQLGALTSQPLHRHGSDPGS

SMILES: O=S(=O)(Nc1ccc(C(F)(F)F)nc1)c1ccccc1C(F)(F)F
- logD [1]: 1.4
- solubility [2]: 620 µM (≈ 230 µg/mL)
- IC50 [3]: 3.3 µM
- microsomal CLint [4]: < 14 µL/min/mg
- CL free [5]: 41 mL/min/kg
- Activity [6]: Non-Toxic
- IC50 [7]: 0.042 µM
- half-life [8]: 27.3 h
- fold change (FC) [9]: 1.145
- Papp [10]: 27 ×10⁻⁶ cm/s
- CL [11]: < 2%
- Vd [12]: 0.4 L/kg
- MTD [13]: 100 mg/kg
- Drug metabolism [14]: Metabolite_Detected
- bioavailability [15]: 98%
- Activity [16]: Toxic
- CL [17]: < 2%
- Cave [18]: 422 nM
- IC50 [19]: > 100 µM
- Activity [20]: Toxic
- CLH [21]: < 6 µL/min/1e6 cells
- CLH [22]: < 6 µL/min/1e6 cells
- fraction unbound [23]: 0.0084
- fraction unbound [24]: 0.0045
- Activity [25]: Toxic
- fCmax [26]: 3.754 µM

SMILES: O=S(=O)(Nc1cncc(C(F)(F)F)c1)c1ccccc1C(F)(F)F
- logD [1]: 1.5
- solubility [2]: 489 µM (≈ 181 µg/mL)
- IC50 [3]: 3.4 µM
- microsomal CLint [4]: 35 µL/min/mg
- CL free [5]: 324 mL/min/kg
- Activity [6]: Non-Toxic
- IC50 [7]: 0.036 µM
- half-life [8]: 3.3 h
- fold change (FC) [9]: 0.961
- Papp [10]: 21 ×10⁻⁶ cm/s
- CL [11]: < 2%
- Vd [12]: 0.14 L/kg
- bioavailability [15]: 150%
- CL [17]: < 2%
- IC50 [19]: > 100 µM
- CLH [21]: 7 µL/min/1e6 cells
- CLH [22]: < 6 µL/min/1e6 cells
- fraction unbound [23]: 0.0034
- fraction unbound [24]: 0.0017

Reference: ChEMBL document CHEMBL3853265 (Medchemcomm, 2016)
